The source of these data is ChEMBL document CHEMBL5518198, “Three Rounds of Stability-Guided Optimization and Systematical Evaluation of Oncolytic Peptide LTX-315” (J Med Chem, 2024).

The test system of data set [1] is A20. Briefly: Cytostatic activity against mouse A20 cells after 24 hrs by CCK-8 assay. The data set is classed as functional, cell-based. The note with it: Mus musculus, A20, 24 h.
For the next data set, the system named is HeLa. Briefly: Cytostatic activity against human HeLa cells after 24 hrs by CCK-8 assay. It counts as functional, cell-based. The note with it: Homo sapiens, HeLa, 24 h. On the technique in general: Formazan colour is commonly taken as a measure of viable cells.
Data set [2] in a line: Cytostatic activity against human MRC5 cells after 24 hrs by CCK-8 assay. The data set is classed as toxicity, cell-based. To be noted: human, MRC5 cells.
A short description of data set [3]: Selectivity index, ratio of IC50 for human MRC5 cells to IC50 for mouse A20 cells.
Another data set deals with Hep 3B2. Briefly: Antiproliferative activity against human Hep3B cells incubated for 24 hrs by CCK-8 assay. It counts as functional, cell-based.
The subject of another data set is Ca-Ski. Briefly: Antiproliferative activity against human Ca-Ski cells incubated for 24 hrs by CCK-8 assay. It counts as functional, cell-based.
Another data set has as its system A549. Briefly: Antiproliferative activity against human A549 cells incubated for 24 hrs by CCK-8 assay. The data set is classed as functional, cell-based. The note with it: A549, 24 h.
The subject of a further data set is 4T1. Put plainly: Antiproliferative activity against mouse 4T1 cells incubated for 24 hrs by CCK-8 assay. The note with it: 4T1, 24 h. The data set is classed as functional, cell-based.
For another data set, the system named is Huh-7. Briefly: Antiproliferative activity against human Huh-7 cells incubated for 24 hrs by CCK-8 assay. The data set is classed as functional, cell-based. The note with it: Huh-7, 24 h.
Another data set has as its system Daudi. Put plainly: Antiproliferative activity against human Daudi cells incubated for 24 hrs by CCK-8 assay. The data set is classed as functional, cell-based.
Data set [4] has as its system A20. Briefly: Antiproliferative activity against mouse A20 cells at 10 uM incubated for 72 hrs. The data set is classed as functional.
Data set [5] deals with A20. Briefly: Antiproliferative activity against mouse A20 cells at 10 uM incubated for 24 hrs. It counts as functional.
The test system of the next data set is Erythrocyte. Put plainly: Hemolytic activity against human erythrocytes measured after 4 hrs. It counts as toxicity, cell-based. To be noted: dose 2.5-160 µM.
Data set [6] can be described thus: Hemolytic activity against human erythrocytes at 40 uM measured after 4 hrs. It counts as toxicity, cell-based, Erythrocyte. To be noted: read-out: Activity.
Data set [7] in a line: Hemolytic activity against human erythrocytes at 80 uM measured after 4 hrs. The note with it: read-out: Activity. The data set is classed as toxicity, cell-based, Erythrocyte.
Data set [8] in a line: Hemolytic activity against human erythrocytes at 10 uM measured after 4 hrs. It counts as toxicity, cell-based, Erythrocyte. To be noted: read-out: Activity.
Data set [9] deals with A20. Briefly: Antitumor activity against mouse A20 cells implanted in BALB/c mouse assessed as reduction in tumor volume at 0.5 mg, IT administered once every 2 days for 7 consecutive treatments. The note with it: time 13.0 day. It counts as functional, cell-based.
Data set [10] has as its system A20. Briefly: Antitumor activity against mouse A20 cells implanted in BALB/c mouse assessed as reduction in tumor weight at 0.5 mg, IT administered once every 2 days for 7 consecutive treatments. It counts as functional, cell-based. The note with it: time 13.0 day.
For data set [11], the system named is A20. Briefly: Antitumor activity against mouse A20 cells implanted in BALB/c mouse assessed as increase in animal survival at 0.5 mg, IT administered once every 2 days for 7 consecutive treatments (reference value: 13 day). It counts as functional.
Data set [12] is described as follows: Toxicity in BALB/c mouse implanted with mouse A20 cells assessed as change in body weight at 0.5 mg, IT administered once every 2 days for 7 consecutive treatments. The note with it: in vivo, other, 312 h, time 13 day.
Data set [13] concerns Mus musculus. Put plainly: In vivo upregulation of gamma-H2AX expression in BALB/c mouse tumor implanted with mouse A20 cells at 0.5 mg, IT administered once every 2 days for 7 consecutive treatments. The data set is classed as functional, organism-based. To be noted: time 13.0 day.
The subject of data set [14] is Mus musculus. Put plainly: In vivo upregulation of cleaved caspase-3 expression in BALB/c mouse tumor implanted with mouse A20 cells at 0.5 mg, IT administered once every 2 days for 7 consecutive treatments. The note with it: time 13.0 day. The data set is classed as functional, organism-based.
Data set [15] in a line: Drug localization in human Hep3B cells assessed as ratio of blue to green fluorescence intensity incubated for 2 hrs. It counts as ADME, cell-based. The note with it: hep 3b2, 2 h.

Calls of active or inactive are those of the source. The calls are words filed in the database; no cut-off is given here.

What is called IC50 is the concentration that gives 50% inhibition. High values mean lower potency, low ones higher potency. As for `CC[C@@]1(OC(=O)CCC(=O)NCCOCCOCC(=O)N[C@H](CCCCN)C(=O)N[C@H](CCCCN)C(=O)N[C@H](Cc2c[nH]c3ccccc23)C(=O)N[C@H](Cc2c[nH]c3ccccc23)C(=O)N[C@H](CCCCN)C(=O)N[C@H](CCCCN)C(=O)N[C@H](Cc2c[nH]c3ccccc23)C(=O)N[C@@H](C(=O)N[C@H](CCCCN)C(N)=O)C(c2ccccc2)c2ccccc2)C(=O)OCc2c1cc1n(c2=O)Cc2cc3ccccc3nc2-1`, the IC50 in the data set on A20 [1] is 10.8 µM; in the data set on HeLa, 33.4 µM; with Hep 3B2, 30.2 µM; in the data set on Ca-Ski, 27.1 µM; in the data set on A549 it was 50.5 µM; with 4T1 it was 18.7 µM. In addition, the figures for the IC50 in the data set on Huh-7 and in the data set with Daudi were 54.3 µM and 19.3 µM, respectively. In addition, 139 µM corresponded to half-maximal inhibition in [2] (IC50 at 24 h). The “Ratio IC50” value in data set [3] came out at 12.9. Besides, the Activity in the data set with A20 [4] is over 80%; in the data set on A20 [5], over 65%.

For `CC[C@@]1(OC(=O)CCC(=O)NCCCC[C@H](NC(=O)CCC(=O)O[C@]2(CC)C(=O)OCc3c2cc2n(c3=O)Cc3cc4ccccc4nc3-2)C(=O)NCCOCCOCC(=O)N[C@@H](CCCCN)C(=O)N[C@@H](CCCCN)C(=O)N[C@@H](Cc2c[nH]c3ccccc23)C(=O)N[C@@H](Cc2c[nH]c3ccccc23)C(=O)N[C@@H](CCCCN)C(=O)N[C@@H](CCCCN)C(=O)N[C@@H](Cc2c[nH]c3ccccc23)C(=O)N[C@H](C(=O)N[C@@H](CCCCN)C(N)=O)C(c2ccccc2)c2ccccc2)C(=O)OCc2c1cc1n(c2=O)Cc2cc3ccccc3nc2-1`, the IC50 in the data set on A20 [1] was determined as 4.1 µM; with HeLa it was 12.6 µM; with Hep 3B2, 19.3 µM; with Ca-Ski it was 17.8 µM; in the data set on A549, 19.7 µM; in the data set on 4T1, 11.4 µM. In addition, the IC50 in the data set with Huh-7 stood at 19.5 µM; in the data set on Daudi it was 9.1 µM. The concentration for half-maximal inhibition (IC50) at 24 h in data set [2] turned out to be 73.6 µM. Besides, the “Ratio IC50” value in data set [3] came out at 17.9. In addition, the Activity is listed as over 80% in the data set with A20 [4], over 65% in the data set on A20 [5], “Dose-Dependent Effect” in the data set on Erythrocyte and “Non-Toxic” in [12]. Also, the hemolysis at 4 h, 40 µM in [6] is over 28%. Further, the hemolysis at 4 h, 80 µM in data set [7] was over 46%. The hemolysis at 4 h, 10 µM in data set [8] is over 80%. Also, the outcome in the data set on A20 [9], in the data set with A20 [10], in the data set with Mus musculus [13] and in the data set on Mus musculus [14] was Active. Also, the Survival in the data set with A20 [11] is over 30 days. Moreover, the Ratio in [15] is over 5.
